We go through 14 molecules from patent US20240051985A1, “METTL3 MODULATORS” (ACCENT THERAPEUTICS, INC., priority 2020, published 2024).

One assay addresses PRMT5-MEP50 (Homo sapiens, UniProt O14744). In words: PRMT5 assay (3H-SAM flashplate). Particulars: Table 4; PRMT5 biochemical assay. In a few lines: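 PRMT5-MEP50 at 2.5 nM, preincubated 5 min with compound in 20 mM Tris-HCl pH 8.0, 1 mM DTT, 0.01% Tween at ambient temperature. Biotinylated acetylated histone H4 peptide (100 nM) and 3H-SAM (250 nM) react 60 min, quenched with 15 μM cold SAM; methylation captured on streptavidin flashplates and scintillation-counted.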

The target in a further assay is METTL3/METTL14 (Homo sapiens, UniProt Q86U44). In words: METTL3-14 standard enzyme assay (3H-SAM flashplate). To be noted: Table 4; METTL3 biochemical assay. In a few lines:
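METTL3/METTL14 (2.5 nM) preincubated 5 min, then reacted with 3′-biotinylated RNA UCUGGACUAAA (100 nM) and 3H-SAM (100 nM) for 30 min at ambient temperature in 20 mM HEPES pH 7.5, 50 mM KCl, 250 μM MgCl2, 1 mM DTT. Quenched with 15 μM cold SAM; product captured on streptavidin flashplates, scintillation counted.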

For another assay, the target named is T1, FLT3-ITD (Homo sapiens, UniProt P36888).
T1 sequence (P36888 1-993): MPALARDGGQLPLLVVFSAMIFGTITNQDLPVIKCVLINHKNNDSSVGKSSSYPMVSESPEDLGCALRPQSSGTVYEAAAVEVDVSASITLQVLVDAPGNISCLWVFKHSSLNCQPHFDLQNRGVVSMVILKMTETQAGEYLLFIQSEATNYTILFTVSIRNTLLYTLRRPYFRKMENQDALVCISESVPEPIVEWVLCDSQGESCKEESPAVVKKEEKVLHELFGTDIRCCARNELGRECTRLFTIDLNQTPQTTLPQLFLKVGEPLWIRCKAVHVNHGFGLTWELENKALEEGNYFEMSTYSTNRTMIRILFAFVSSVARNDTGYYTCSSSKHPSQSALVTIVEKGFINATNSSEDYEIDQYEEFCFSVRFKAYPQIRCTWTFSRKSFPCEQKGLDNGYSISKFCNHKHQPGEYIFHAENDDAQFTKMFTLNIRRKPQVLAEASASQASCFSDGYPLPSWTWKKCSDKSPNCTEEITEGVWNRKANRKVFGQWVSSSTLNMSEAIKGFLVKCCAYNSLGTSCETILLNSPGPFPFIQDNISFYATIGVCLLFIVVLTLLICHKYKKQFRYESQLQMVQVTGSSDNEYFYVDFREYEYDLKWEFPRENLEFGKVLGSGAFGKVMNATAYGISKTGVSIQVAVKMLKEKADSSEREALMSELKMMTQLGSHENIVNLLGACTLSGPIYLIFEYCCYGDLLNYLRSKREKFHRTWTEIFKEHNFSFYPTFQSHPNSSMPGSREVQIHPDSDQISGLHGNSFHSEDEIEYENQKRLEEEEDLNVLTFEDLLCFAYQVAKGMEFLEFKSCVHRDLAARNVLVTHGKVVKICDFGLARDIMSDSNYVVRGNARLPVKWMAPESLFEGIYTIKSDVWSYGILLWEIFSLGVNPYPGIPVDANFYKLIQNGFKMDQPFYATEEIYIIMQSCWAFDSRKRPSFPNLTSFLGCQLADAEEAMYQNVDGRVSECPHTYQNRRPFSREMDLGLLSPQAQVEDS
In words: FLT3-ITD LanthaScreen assay. It is filed as biochemical. To be noted: Table 4. The method, then: (§1) FLT3/FLT3-ITD LanthaScreen Assays
(§2) Assays were performed in a 10 μl-volume in 384-well polypropylene microplates (Perkin Elmer Proxiplate, cat. No. 6059480) at ambient temperature. Optimized 1× assay buffer was 50 mM Hepes pH 7.5, 2 mM DTT, 0.01% Tween, 0.01% BSA, 10 mM MgCl2. For compound screening FLT3 (final concentration, f.c.=[…]) or FLT3-ITD (f.c.=[…]) was added using a Multidrop Combi (ThermoFisher Scientific, Waltham, MA) and preincubated for 10 min. Reactions were started by adding fluorescein-poly GT (f.c.=200 nM) and ATP (f.c.=57 μM) substrates. Reactions proceeded for 40 minutes. The reactions were stopped with a detection mixture of EDTA (f.c.=20 mM) and terbium-conjugated anti-phoso tyrosine antibody pY20 (f.c.=2 nM). The plates were sealed and read on an Envision (PerkinElmer, Waltham, MA) using 340 nm excitation and emission reads at 495 and 520 nM.

For the next assay, the target named is T2, FLT3 (Homo sapiens, UniProt P36888).
T2 sequence (P36888 27-993): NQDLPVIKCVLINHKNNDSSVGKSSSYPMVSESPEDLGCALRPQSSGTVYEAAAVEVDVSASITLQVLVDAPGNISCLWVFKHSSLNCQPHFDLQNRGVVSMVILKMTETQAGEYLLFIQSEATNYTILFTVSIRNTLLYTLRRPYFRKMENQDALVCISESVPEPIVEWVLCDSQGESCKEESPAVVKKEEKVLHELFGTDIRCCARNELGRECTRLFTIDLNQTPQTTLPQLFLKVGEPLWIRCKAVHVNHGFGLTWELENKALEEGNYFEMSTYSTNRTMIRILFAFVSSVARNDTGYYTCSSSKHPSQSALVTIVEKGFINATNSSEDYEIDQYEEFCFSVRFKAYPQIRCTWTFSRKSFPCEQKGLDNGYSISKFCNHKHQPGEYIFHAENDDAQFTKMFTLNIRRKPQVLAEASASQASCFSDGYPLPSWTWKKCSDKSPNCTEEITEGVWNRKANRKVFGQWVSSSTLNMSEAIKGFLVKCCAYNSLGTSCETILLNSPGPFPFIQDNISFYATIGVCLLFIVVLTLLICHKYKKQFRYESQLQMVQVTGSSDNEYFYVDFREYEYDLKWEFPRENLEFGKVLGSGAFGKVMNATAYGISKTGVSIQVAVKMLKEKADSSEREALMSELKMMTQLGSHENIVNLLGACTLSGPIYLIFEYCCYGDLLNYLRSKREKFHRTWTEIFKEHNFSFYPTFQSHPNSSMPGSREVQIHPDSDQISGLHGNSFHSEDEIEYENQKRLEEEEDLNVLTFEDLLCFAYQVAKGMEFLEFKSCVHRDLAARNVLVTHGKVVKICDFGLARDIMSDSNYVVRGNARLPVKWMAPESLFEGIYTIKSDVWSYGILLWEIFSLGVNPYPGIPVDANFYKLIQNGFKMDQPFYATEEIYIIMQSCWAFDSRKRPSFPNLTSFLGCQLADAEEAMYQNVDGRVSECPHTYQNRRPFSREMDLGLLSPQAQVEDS
The experiment in a line: FLT3 LanthaScreen assay. It is filed as biochemical. Particulars: Table 4. The method, then: as §1, §2

A value given as a limit tells only on which side of the number the result lay.

METTL3/METTL14, sequence (Q86U44 whole entry, species assumed): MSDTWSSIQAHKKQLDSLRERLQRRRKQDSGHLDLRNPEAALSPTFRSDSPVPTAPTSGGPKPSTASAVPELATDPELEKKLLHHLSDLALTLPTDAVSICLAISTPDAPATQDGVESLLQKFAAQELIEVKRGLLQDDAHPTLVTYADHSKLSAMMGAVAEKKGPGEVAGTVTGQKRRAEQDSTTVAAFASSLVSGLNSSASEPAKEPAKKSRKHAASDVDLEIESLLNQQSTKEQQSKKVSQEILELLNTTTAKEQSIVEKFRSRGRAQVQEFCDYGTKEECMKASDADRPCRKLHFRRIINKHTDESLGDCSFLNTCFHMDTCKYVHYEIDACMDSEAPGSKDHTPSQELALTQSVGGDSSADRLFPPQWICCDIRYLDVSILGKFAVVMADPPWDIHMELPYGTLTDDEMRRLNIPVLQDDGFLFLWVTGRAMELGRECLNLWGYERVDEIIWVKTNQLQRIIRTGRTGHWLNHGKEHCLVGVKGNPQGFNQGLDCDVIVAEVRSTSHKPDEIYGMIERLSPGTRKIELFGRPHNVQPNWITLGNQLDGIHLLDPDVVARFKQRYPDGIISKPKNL
METTL3/METTL14, sequence (Q9HCE5 whole entry partner, species assumed): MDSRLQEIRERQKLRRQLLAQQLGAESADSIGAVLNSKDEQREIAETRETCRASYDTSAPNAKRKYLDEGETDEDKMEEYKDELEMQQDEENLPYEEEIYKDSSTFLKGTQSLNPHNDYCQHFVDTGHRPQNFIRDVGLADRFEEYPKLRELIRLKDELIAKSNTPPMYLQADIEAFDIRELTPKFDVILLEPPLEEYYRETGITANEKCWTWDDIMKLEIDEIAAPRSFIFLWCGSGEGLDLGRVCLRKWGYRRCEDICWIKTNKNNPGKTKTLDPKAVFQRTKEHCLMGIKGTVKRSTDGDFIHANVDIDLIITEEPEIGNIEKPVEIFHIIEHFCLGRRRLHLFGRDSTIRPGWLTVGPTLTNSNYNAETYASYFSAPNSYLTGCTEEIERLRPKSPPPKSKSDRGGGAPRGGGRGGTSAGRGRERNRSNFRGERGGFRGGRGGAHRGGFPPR
PRMT5-MEP50, sequence (O14744 whole entry): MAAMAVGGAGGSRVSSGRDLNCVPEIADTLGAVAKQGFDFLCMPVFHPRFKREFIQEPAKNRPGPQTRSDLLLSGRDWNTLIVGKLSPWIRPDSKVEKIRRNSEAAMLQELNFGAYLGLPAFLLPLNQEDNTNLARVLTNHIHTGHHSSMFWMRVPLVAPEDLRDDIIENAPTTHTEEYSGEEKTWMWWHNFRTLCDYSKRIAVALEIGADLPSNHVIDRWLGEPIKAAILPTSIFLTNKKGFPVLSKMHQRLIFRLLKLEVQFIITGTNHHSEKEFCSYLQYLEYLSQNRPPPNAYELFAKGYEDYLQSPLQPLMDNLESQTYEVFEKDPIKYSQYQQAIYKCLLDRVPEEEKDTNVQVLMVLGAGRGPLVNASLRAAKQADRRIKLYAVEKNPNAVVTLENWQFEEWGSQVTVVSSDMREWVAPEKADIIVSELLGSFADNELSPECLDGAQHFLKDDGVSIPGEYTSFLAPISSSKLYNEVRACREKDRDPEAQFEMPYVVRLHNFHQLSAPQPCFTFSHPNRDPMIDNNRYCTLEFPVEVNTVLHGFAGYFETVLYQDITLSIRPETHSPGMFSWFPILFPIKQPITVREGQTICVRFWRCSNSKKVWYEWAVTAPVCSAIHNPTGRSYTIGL
PRMT5-MEP50, sequence (Q9BQA1 whole entry partner): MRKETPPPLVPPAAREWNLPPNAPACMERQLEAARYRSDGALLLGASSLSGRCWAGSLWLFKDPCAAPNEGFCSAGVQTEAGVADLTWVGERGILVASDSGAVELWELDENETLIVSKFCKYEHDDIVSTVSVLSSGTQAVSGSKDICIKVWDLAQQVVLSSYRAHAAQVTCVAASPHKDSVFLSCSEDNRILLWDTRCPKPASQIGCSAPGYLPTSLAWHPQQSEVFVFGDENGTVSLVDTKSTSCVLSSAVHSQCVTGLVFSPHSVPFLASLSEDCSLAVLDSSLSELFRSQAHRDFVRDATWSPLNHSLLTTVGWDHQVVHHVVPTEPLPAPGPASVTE

Broadly, the IC50 is the concentration that inhibits the measured activity by half. `Cn1ccc(-c2cn([C@@H]3O[C@H](C(=O)N[C@@H]4CCCNC4)[C@@H](O)[C@H]3O)c3ncnc(N)c23)n1` [Compound I-220]: the IC50 against PRMT5-MEP50 was below 0.01 µM; against METTL3/METTL14, 0.1 to 1 µM; against FLT3-ITD, at least 1 µM; on FLT3, at least 1 µM.
Consider `Cn1ccc(-c2cn([C@@H]3O[C@H](C(=O)N4CCC[C@@H](C(N)=O)C4)[C@@H](O)[C@H]3O)c3ncnc(N)c23)n1` [Compound I-174], for which the IC50 at PRMT5-MEP50, against METTL3/METTL14, against FLT3-ITD and on FLT3 was at least 1 µM in each case.
Consider `Cn1ccc(-c2cn([C@@H]3O[C@H](C(=O)NC4CCN(CCO)CC4)[C@@H](O)[C@H]3O)c3ncnc(N)c23)n1` [Compound I-178], for which the IC50 against PRMT5-MEP50 is 0.01 to 0.1 µM; against METTL3/METTL14, 0.1 to 1 µM; on FLT3-ITD, at least 1 µM; against FLT3, at least 1 µM.
Regarding `C[C@@H]1C[C@@H](NC(=O)[C@H]2O[C@@H](n3cc(-c4ccn(C)n4)c4c(N)ncnc43)[C@H](O)[C@@H]2O)CCN1C` [Compound I-233], the IC50 at PRMT5-MEP50 is 0.1 to 1 µM; on METTL3/METTL14, 0.1 to 1 µM; on FLT3-ITD, at least 1 µM; against FLT3 it was at least 1 µM.
For the molecule `CN1CC[C@H](NC(=O)[C@H]2O[C@@H](n3cc(-c4ccn(C)n4)c4c(N)ncnc43)[C@H](O)[C@@H]2O)C1` [Compound I-203], the IC50 on PRMT5-MEP50 was 0.01 to 0.1 µM; against METTL3/METTL14, 0.1 to 1 µM; on FLT3-ITD, at least 1 µM; at FLT3 it was at least 1 µM.
Take `CN1CCC(NC(=O)[C@H]2O[C@@H](n3cc(C4CCCC4)c4c(N)ncnc43)[C@H](O)[C@@H]2O)CC1` [Compound I-56, (2S,3S,4R,5R)-5-(4-amino-5-cyclopentyl-7H-pyrrolo[2,3-d]pyrimidin-7-yl)-3,4-dihydroxy-N-(1-methylpiperidin-4-yl)tetrahydrofuran-2-carboxamide]: the IC50 is 0.1 to 1 µM against PRMT5-MEP50, 0.1 to 1 µM on METTL3/METTL14, at least 1 µM against FLT3-ITD and at least 1 µM at FLT3.
`CN1CCC(N(CCC#N)C(=O)[C@H]2O[C@@H](n3cc(-c4ccn(C)n4)c4c(N)ncnc43)[C@H](O)[C@@H]2O)CC1` [Compound I-144]: the IC50 is 0.01 to 0.1 µM against PRMT5-MEP50, 0.1 to 1 µM against METTL3/METTL14, at least 1 µM at FLT3-ITD and at least 1 µM at FLT3.
For the molecule `COC(=O)[C@@H](N)CCNC(=O)[C@H]1O[C@@H](n2cc(-c3ccn(C)n3)c3c(N)ncnc32)[C@H](O)[C@@H]1O` [Compound I-42, methyl (2S)-2-amino-4-{[(2S,3S,4R,5R)-5-[4-amino-5-(1-methyl-1H-pyrazol-3-yl)-7H-pyrrolo[2,3-d]pyrimidin-7-yl]-3,4-dihydroxyoxolan-2-yl]formamido}butanoate], the IC50 at PRMT5-MEP50 is 0.1 to 1 µM; on METTL3/METTL14, at least 1 µM; against FLT3-ITD, at least 1 µM; at FLT3, at least 1 µM.
For the molecule `Cn1ccc(-c2cn([C@@H]3O[C@H](C(=O)NC4CCNC(C)(C)C4)[C@@H](O)[C@H]3O)c3ncnc(N)c23)n1` (some centres unmarked) [Compound I-189], the half-inhibitory concentration (IC50) at PRMT5-MEP50 was 0.01 to 0.1 µM; against METTL3/METTL14, 0.1 to 1 µM; on FLT3-ITD, at least 1 µM; at FLT3, at least 1 µM.
As for `CN1CCC(NC(=O)[C@H]2O[C@@H](n3cc(C4CCCO4)c4c(N)ncnc43)[C@H](O)[C@@H]2O)CC1` (stereo partly drawn) [Compound I-53, (2S,3S,4R,5R)-5-[4-amino-5-(oxolan-2-yl)-7H-pyrrolo[2,3-d]pyrimidin-7-yl]-3,4-dihydroxy-N-(1-methylpiperidin-4-yl)oxolane-2-carboxamide], the IC50 was 0.1 to 1 µM against PRMT5-MEP50, 0.1 to 1 µM against METTL3/METTL14, at least 1 µM on FLT3-ITD and at least 1 µM against FLT3.
For the molecule `CN1CCC(NC(=O)[C@H]2C[C@@H](n3cc(-c4ccn(C)n4)c4c(N)ncnc43)[C@H](O)[C@@H]2O)CC1` [Compound I-44, (1S,2R,3S,4R)-4-[4-amino-5-(1-methyl-1H-pyrazol-3-yl)-7H-pyrrolo[2,3-d]pyrimidin-7-yl]-2,3-dihydroxy-N-(1-methylpiperidin-4-yl)cyclopentane-1-carboxamide], the half-inhibitory concentration (IC50) at PRMT5-MEP50 was 0.01 to 0.1 µM; against METTL3/METTL14 it was 0.1 to 1 µM; against FLT3-ITD, at least 1 µM; on FLT3 it was at least 1 µM.
Regarding `Cn1ccc(-c2cn([C@@H]3O[C@H](C(=O)NC4CC5(CNC5)C4)[C@@H](O)[C@H]3O)c3ncnc(N)c23)n1` [Compound I-210], the IC50 at PRMT5-MEP50 was 0.01 to 0.1 µM; against METTL3/METTL14 it was 0.1 to 1 µM; at FLT3-ITD, at least 1 µM; at FLT3, at least 1 µM.
Take `COCCn1ccc(-c2cn([C@@H]3O[C@H](C(=O)NC4CCN(C)CC4)[C@@H](O)[C@H]3O)c3ncnc(N)c23)n1` [Compound I-57, (2S,3S,4R,5R)-5-(4-amino-5-(1-(2-methoxyethyl)-1H-pyrazol-3-yl)-7H-pyrrolo[2,3-d]pyrimidin-7-yl)-3,4-dihydroxy-N-(1-methylpiperidin-4-yl)tetrahydrofuran-2-carboxamide]: the IC50 is 0.1 to 1 µM at PRMT5-MEP50, 0.1 to 1 µM on METTL3/METTL14, at least 1 µM against FLT3-ITD and at least 1 µM against FLT3.
Consider `CNC(=O)Nc1cc(NC(=O)[C@H]2O[C@@H](n3cc(-c4ccn(C)n4)c4c(N)ncnc43)[C@H](O)[C@@H]2O)ccn1` [Compound I-143], for which the IC50 against PRMT5-MEP50 is 0.01 to 0.1 µM; at METTL3/METTL14 it was 0.1 to 1 µM; against FLT3-ITD, at least 1 µM; against FLT3, at least 1 µM.
